# Like-named read-outs stand apart in the source and are kept apart here.
# Molecular target: T1, memapsin 2 (Homo sapiens, UniProt P56817)
# T1 construct: pET-11 vector-derived residues 1-15 of promemapsin 2-T1 (N, cleaved yes); made in house; host or cells: E. coli
# Experiment: Inhibition of memapsin 2 proteolytic activity, fluorogenic substrate FS-2
# Format: biochemical
# Conditions: for Vi/Vo: ratio of initial cleavage velocities of FS-2 with/without compound, enzyme and inhibitor concentrations equal (e.g., about 80 nM, 100 nM)
# Summary of the method: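 Spontaneously activated memapsin 2 (80 nM final) equilibrated with inhibitor (about 10 nM–10 μM) in 0.1 M NaOAc pH 4.0 with 10% DMSO for 20 min at 37 °C, with fluorogenic substrate FS-2. Ki converted from Ki apparent using substrate concentration and Km.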
# [1] = memapsin 2, apparent Ki in presence of substrate FS-2, read-out: Ki app
# [2] = memapsin 2, independent of substrate, converted from Ki apparent, read-out: Ki
# [3] = Ki, [I] < 100, memapsin 2, [I] < 100 (nM)
# [4] = memapsin 2, apparent Ki in presence of substrate FS-2
# [5] = memapsin 2, independent of substrate, converted from Ki apparent
# T1 sequence (P56817 41-454 limits assumed): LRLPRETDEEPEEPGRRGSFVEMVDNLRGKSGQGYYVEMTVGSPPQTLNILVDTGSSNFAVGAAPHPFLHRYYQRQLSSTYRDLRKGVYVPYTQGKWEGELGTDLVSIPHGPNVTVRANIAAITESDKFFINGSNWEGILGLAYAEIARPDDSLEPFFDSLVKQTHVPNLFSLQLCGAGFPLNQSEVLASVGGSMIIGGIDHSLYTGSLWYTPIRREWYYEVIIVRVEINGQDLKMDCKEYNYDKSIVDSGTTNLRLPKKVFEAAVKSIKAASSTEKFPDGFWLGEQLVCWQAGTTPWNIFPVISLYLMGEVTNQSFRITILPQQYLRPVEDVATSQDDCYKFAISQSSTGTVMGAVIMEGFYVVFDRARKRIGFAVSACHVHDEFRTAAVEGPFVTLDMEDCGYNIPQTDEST
Compound,Vi/Vo,Ki [1],Ki [2],Ki [3],Ki app [4],Ki [5]
CSCC[C@H](C[C@H](O)[C@H](CC(C)C)NC(=O)[C@H](CCSC)NC(=O)[C@H](CC(C)C)NC(=O)OC(C)(C)C)C(=O)N[C@H](C(=O)NCc1ccccc1)C(C)C [MMI-164],0.29,12.8 nM,7.98 nM,–,–,–
CSCC[C@H](NC(=O)OCn1nc(C)cc1C)C(=O)N[C@@H](CC(C)C)[C@@H](O)C[C@@H](C)C(=O)N[C@@H](CC(C)C)C(=O)NCC(C)C [MMI-166],0.76,108 nM,67.4 nM,–,–,–
CSCC[C@H](NC(=O)OCn1nc(C)cc1C)C(=O)N[C@@H](CC1CCCC1)[C@@H](O)C[C@@H](C)C(=O)N[C@@H](CC(C)C)C(=O)NCC(C)C [MMI-170],1.08,–,–,–,–,–
CCCCNC(=O)[C@@H](NC(=O)[C@H](C)C[C@H](O)[C@H](CC1CCCC1)NC(=O)[C@H](CCSC)NC(=O)OCn1nc(C)cc1C)C(C)C [MMI-172],1.05,447 nM,279 nM,–,–,–
CSCC[C@H](NC(=O)OCCn1nc(C(C)(C)C)cc1C(C)(C)C)C(=O)N[C@@H](CC(C)C)[C@@H](O)C[C@@H](C)C(=O)N[C@@H](CC(C)C)C(=O)NCC(C)C [MMI-177],1.16,–,–,–,–,–
CCCCNC(=O)[C@@H](NC(=O)[C@H](C)C[C@H](O)[C@H](CC1CCC1)NC(=O)[C@H](CCSC)NC(=O)OCn1nc(C)cc1C)C(C)C [MMI-178],0.69,24.5 nM,15.3 nM,–,–,–
CSCC[C@H](NC(=O)OCc1ccnn1C)C(=O)N[C@@H](CC(C)C)[C@@H](O)C[C@@H](C)C(=O)N[C@H](C(=O)NCC(C)C)C(C)C [MMI-186],–,217 nM,136 nM,–,–,–
CSCC[C@H](NC(=O)OCc1ncc(C)n1C)C(=O)N[C@@H](CC(C)C)[C@@H](O)C[C@@H](C)C(=O)N[C@H](C(=O)NCC(C)C)C(C)C [MMI-188],–,230 nM,144 nM,–,–,–
CSCC[C@H](NC(=O)OCc1c(C)ncn1C)C(=O)N[C@@H](CC(C)C)[C@@H](O)C[C@@H](C)C(=O)N[C@H](C(=O)NCC(C)C)C(C)C [MMI-189],–,358 nM,224 nM,–,–,–
COCOCC[C@H](NC(=O)[C@H](CC(C)C)NC(=O)OC(C)(C)C)C(=O)N[C@@H](CC(C)C)[C@@H](O)C[C@@H](C)C(=O)N[C@@H](CC(C)C)C(=O)NC(C)C [MMI-190],–,29.1 nM,18.2 nM,–,–,–
CSCC[C@H](NC(=O)OCc1cc(C)nn1C)C(=O)N[C@@H](CC(C)C)[C@@H](O)C[C@@H](C)C(=O)N[C@H](C(=O)NCC(C)C)C(C)C [MMI-193],–,288 nM,180 nM,–,–,–
CSCC[C@H](NC(=O)CCn1nc(C)cc1C)C(=O)N[C@@H](CC(C)C)[C@@H](O)C[C@@H](C)C(=O)N[C@H](C(=O)NCC(C)C)C(C)C [MMI-194],–,62.3 nM,38.9 nM,–,–,–
COc1cccc(C(=O)N[C@@H](CSC)C(=O)N[C@@H](CC(C)C)[C@@H](O)C[C@@H](C)C(=O)N[C@@H](CC(C)C)C(=O)NC(C)C)c1OC [MMI-199],–,963 nM,602 nM,190 nM,–,–
CSCC[C@H](NC(=O)c1cccc(O)c1O)C(=O)N[C@@H](CC(C)C)[C@@H](O)C[C@@H](C)C(=O)N[C@@H](CC(C)C)C(=O)NC(C)C [MMI-200],–,1530 nM,956 nM,–,–,–
CSCC[C@H](C[C@H](O)[C@H](Cc1ccccc1)NC(=O)[C@H](CCSC)NC(=O)[C@@H](NC(=O)OC(C)(C)C)C(C)C)C(=O)N[C@H](C(=O)NCc1ccccc1)C(C)C [MMI-201],–,58 nM,36.2 nM,–,–,–
CSCC[C@H](NC(=O)OCCn1nc(C)cc1C)C(=O)N[C@@H](CC(C)C)[C@@H](O)C[C@@H](C)C(=O)N[C@@H](CC(C)C)C(=O)NC(C)C [MMI-203],–,361 nM,225 nM,–,–,–
CC(C)C[C@H](NC(=O)OC(C)(C)C)C(=O)N[C@@H](CC1CCCO1)C(=O)N[C@@H](CC(C)C)[C@@H](O)C[C@@H](C)C(=O)N[C@@H](CC(C)C)C(=O)NC(C)C (some centres unmarked) [MMI-205],–,48.8 nM,30.5 nM,–,–,–
COc1cccc(C(=O)N[C@@H](CCSC)C(=O)N[C@@H](CC(C)C)[C@@H](O)C[C@@H](C)C(=O)N[C@@H](CC(C)C)C(=O)NC(C)C)c1OC [MMI-206],–,1210 nM,758 nM,292 nM,–,–
COc1ccccc1C(=O)N[C@@H](CCSC)C(=O)N[C@@H](CC(C)C)[C@@H](O)C[C@@H](C)C(=O)N[C@@H](CC(C)C)C(=O)NC(C)C [MMI-207],–,1580 nM,988 nM,1830 nM,–,–

# The remaining lines, values ahead:
Vi/Vo,Ki [1],Ki [2],Ki [3],Ki app [4],Ki [5],Compound
0.57,–,–,–,–,–,CSCC[C@H](NC(=O)[C@@H](NC(=O)OC(C)(C)C)C(C)C)C(=O)N[C@@H](CC(C)C)[C@@H](O)C[C@@H](C)NC(=O)[C@@H](NC(=O)OCc1ccccc1)C(C)C [MMI-163]
0.75,–,–,–,–,–,CSCC[C@H](NC(=O)[C@@H](NC(=O)OC(C)(C)C)C(C)C)C(=O)N[C@@H](CC(C)C)[C@@H](O)C[C@H](C)NC(=O)[C@@H](NC(=O)OCc1ccccc1)C(C)C [MMI-168]
1.1,–,–,–,–,–,CSCC[C@H](NC(=O)[C@@H](NC(=O)OC(C)(C)C)C(C)C)C(=O)N[C@@H](CC(C)C)[C@@H](O)C[C@H](C)NC(=O)[C@H](NC(=O)OCc1ccccc1)C(C)C [MMI-169]
0.64,6740 nM,4210 nM,108 nM,–,–,CSCC[C@H](NC(=O)[C@@H](NC(=O)OC(C)(C)C)C(C)C)C(=O)N[C@@H](CC(C)C)[C@@H](O)C[C@@H](C)C(=O)N[C@@H](CC(C)C)C(=O)N1CCOCC1 [MMI-183]
0.6,194 nM,121 nM,64 nM,–,–,CSCC[C@H](NC(=O)[C@@H](NC(=O)OC(C)(C)C)C(C)C)C(=O)N[C@@H](CC(C)C)[C@@H](O)C[C@@H](C)C(=O)N[C@@H](CC(C)C)C(=O)N1CCN(C)CC1 [MMI-184]
–,–,–,–,N.I.,N.I.,CSCC[C@H](NC(=O)[C@@H](NC(=O)OC(C)(C)C)C(C)C)C(=O)N[C@@H](CC(C)C)[C@@H](O)C[C@]1(C)CCN([C@H](C(=O)NCC(C)C)C(C)C)C1=O [MMI-187]
–,–,–,–,N.I.,N.I.,CSCC[C@H](NC(=O)[C@@H](NC(=O)OC(C)(C)C)C(C)C)C(=O)N[C@@H](CC(C)C)[C@@H](O)C[C@]1(C)CCN([C@@H](CC(C)C)C(=O)NCC(C)C)C1=O [MMI-191]
–,374 nM,234 nM,–,–,–,CSCC[C@H](NC(=O)[C@@H](NC(=O)OC(C)(C)C)C(C)C)C(=O)N[C@@H](CC(C)C)[C@@H](O)C[C@]1(C)CCN([C@H](C(=O)N2CCN(C)CC2)C(C)C)C1=O [MMI-192]
–,451 nM,282 nM,–,–,–,CSCC[C@H](NC(=O)C(C)Cn1nc(C)cc1C)C(=O)N[C@@H](CC(C)C)[C@@H](O)C[C@@H](C)C(=O)N[C@H](C(=O)NCC(C)C)C(C)C (some centres unmarked) [MMI-195]
–,94.5 nM,59.1 nM,–,–,–,CSCC[C@H](NC(=O)[C@@H](NC(=O)OC(C)(C)C)[C@H](C)O)C(=O)N[C@@H](CC(C)C)[C@@H](O)C[C@@H](C)C(=O)N[C@@H](CC(C)C)C(=O)NC(C)C [MMI-197]
–,756 nM,473 nM,–,–,–,CSCC[C@H](NC(=O)[C@H](C(C)C)N1CCCNC1=O)C(=O)N[C@@H](CC(C)C)[C@@H](O)C[C@@H](C)C(=O)N[C@@H](CC(C)C)C(=O)NCC(C)C [MMI-198]
–,688 nM,430 nM,–,–,–,CSCC[C@H](NC(=O)[C@@H](NC(=O)OC(C)(C)C)C(C)C)C(=O)N[C@@H](CC(C)C)[C@@H](O)C[C@H](C(=O)N[C@H](C(=O)NCc1ccccc1)C(C)C)C(C)C [MMI-202]

# Source: patent US20040121947A1, “Compounds which inhibit beta-secretase activity and methods of use thereof” (Oklahoma Medical Research Foundation, priority 2000, published 2004)
